Experimental data taken from patent publication US20210395239A1 (Hoffmann-La Roche Inc., priority 2018, published 2021).

Each compound was assayed against T1, human TLR8 (Homo sapiens, UniProt Q9NR97) (assay: HEK293-Blue-hTLR-8 cells assay (SEAP reporter, R848 stimulation)). Settings: HEK293-Blue-hTLR8 cells, R848, 20 hrs; read-out: HEK/hTLR8 IC50.
T1 construct: host or cells: HEK293 (HEK-Blue hTLR8)
T1 sequence (Q9NR97 27-1041): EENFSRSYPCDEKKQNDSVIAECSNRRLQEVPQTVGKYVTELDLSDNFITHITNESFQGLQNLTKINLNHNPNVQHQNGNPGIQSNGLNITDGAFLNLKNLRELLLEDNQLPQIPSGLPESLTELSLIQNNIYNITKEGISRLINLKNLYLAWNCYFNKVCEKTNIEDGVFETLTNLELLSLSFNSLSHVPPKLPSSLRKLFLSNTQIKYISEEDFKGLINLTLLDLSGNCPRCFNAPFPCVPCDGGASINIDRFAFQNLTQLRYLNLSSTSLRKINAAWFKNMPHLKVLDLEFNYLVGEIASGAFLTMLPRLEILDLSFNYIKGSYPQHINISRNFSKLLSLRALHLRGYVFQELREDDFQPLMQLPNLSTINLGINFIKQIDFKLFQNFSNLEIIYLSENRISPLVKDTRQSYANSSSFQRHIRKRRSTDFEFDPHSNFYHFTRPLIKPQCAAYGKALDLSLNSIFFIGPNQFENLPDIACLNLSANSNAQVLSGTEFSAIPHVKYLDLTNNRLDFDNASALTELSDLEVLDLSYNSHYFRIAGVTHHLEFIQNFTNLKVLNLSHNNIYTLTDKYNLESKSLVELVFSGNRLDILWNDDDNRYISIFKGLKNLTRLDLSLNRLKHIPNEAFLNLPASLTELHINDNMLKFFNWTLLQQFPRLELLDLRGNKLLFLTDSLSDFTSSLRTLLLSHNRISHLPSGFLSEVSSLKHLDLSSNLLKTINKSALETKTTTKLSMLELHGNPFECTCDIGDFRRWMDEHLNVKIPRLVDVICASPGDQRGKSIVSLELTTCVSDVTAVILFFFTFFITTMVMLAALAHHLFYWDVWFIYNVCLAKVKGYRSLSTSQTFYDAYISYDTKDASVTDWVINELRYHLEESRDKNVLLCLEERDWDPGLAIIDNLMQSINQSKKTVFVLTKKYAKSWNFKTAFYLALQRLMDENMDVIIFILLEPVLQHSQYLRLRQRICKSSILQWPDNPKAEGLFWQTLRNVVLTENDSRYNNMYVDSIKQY
Type: cell-based
How it was run: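 HEK293-Blue-hTLR8 cells (NF-κB/AP-1-driven SEAP) incubated 20 h at 37° C with serially diluted compound (1% DMSO) plus R848 stimulation. Supernatant SEAP measured with QUANTI-Blue, 2 h at 37° C, absorbance 620–655 nm.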
`CO[C@@H]1CN(c2cc(C)nc(N3CCN(C[C@H]4CN(c5ccc(C#N)c6nccnc56)C[C@@H](C)O4)CC3)n2)C[C@@H]1N` [Example 120, 8-[(2S,6R)-2-[[4-[4-[(3S,4R)-3-amino-4-methoxy-pyrrolidin-1-yl]-6-methyl-pyrimidin-2-yl]piperazin-1-yl]methyl]-6-methyl-morpholin-4-yl]quinoxaline-5-carbonitrile] was tested, and the IC50 was 1 nM.
`Cc1cc(N2CC(C)(N)C2)cnc1N1CCN(C[C@H]2CN(c3ccc(C#N)n4ncc(F)c34)C[C@@H](C)O2)CC1` [Example 148, 4-[(2S,6R)-2-[[4-[5-(3-amino-3-methyl-azetidin-1-yl)-3-methyl-2-pyridyl]piperazin-1-yl]methyl]-6-methyl-morpholin-4-yl]-3-fluoro-pyrazolo[1,5-a]pyridine-7-carbonitrile] showed an IC50 of 49 nM.
`C[C@@H]1CN(c2ccc(C#N)c3nccnc23)C[C@H](CN2CCN(c3ccnc(N4CC[C@H](N)[C@H](F)C4)n3)CC2)O1` [Example 111, 8-[(2S,6R)-2-[[4-[2-[(3R,4S)-4-amino-3-fluoro-1-piperidyl]pyrimidin-4-yl]piperazin-1-yl]methyl]-6-methyl-morpholin-4-yl]quinoxaline-5-carbonitrile] showed an IC50 of 1 nM.
`[2H]c1ccc2c(N3C[C@H](CN4CCN(c5ccc(N6C[C@@H]7C[C@H]6CN7)nc5)CC4)O[C@H](C)C3)ccc(C#N)c2n1` [Example 151, 2-deuterio-5-[(2S,6R)-2-[[4-[6-[(1S,4S)-2,5-diazabicyclo[2.2.1]heptan-2-yl]-3-pyridyl]piperazin-1-yl]methyl]-6-methyl-morpholin-4-yl]quinoline-8-carbonitrile] gave an IC50 of 23 nM.
In the case of `CO[C@H]1CN(c2cc(C)nc(N3CCN(C[C@H]4CN(c5ccc(C#N)c6nccnc56)C[C@@H](C)O4)CC3)n2)C[C@@H]1N` [Example 104, 8-[(2S,6R)-2-[[4-[4-[(3S,4S)-3-amino-4-methoxy-pyrrolidin-1-yl]-6-methyl-pyrimidin-2-yl]piperazin-1-yl]methyl]-6-methyl-morpholin-4-yl]quinoxaline-5-carbonitrile], the IC50 is reported as 1 nM.
For `[2H]c1ccc2c(N3C[C@H](CN4CCN(c5cnc(N6CC(C)(N)C6)cc5C)CC4)O[C@H](C)C3)ccc(C#N)c2n1` [Example 133, 5-[(2S,6R)-2-[[4-[6-(3-amino-3-methyl-azetidin-1-yl)-4-methyl-3-pyridyl]piperazin-1-yl]methyl]-6-methyl-morpholin-4-yl]-2-deuterio-quinoline-8-carbonitrile], the IC50 was 17 nM.
Work on `Cc1ccc(N2C[C@H](CN3CCN(c4ccnc(N5CCNCC5)n4)CC3)O[C@H](C)C2)c2nccnc12` [Example 117, (2R,6S)-2-methyl-4-(8-methylquinoxalin-5-yl)-6-[[4-(2-piperazin-1-ylpyrimidin-4-yl)piperazin-1-yl]methyl]morpholine] yielded an IC50 of 7 nM.
`C[C@@H]1CN(c2ccc(C#N)c3ncccc23)C[C@H](CN2CCN(c3cnc(N4CCNCC4)cn3)CC2)O1` [Example 6, 5-[(2R,6S)-2-methyl-6-[[4-(5-piperazin-1-ylpyrazin-2-yl)piperazin-1-yl]methyl]morpholin-4-yl]quinoline-8-carbonitrile] was tested, and the IC50 was 7 nM.
With `[2H]c1ccc2c(N3C[C@H](CN4CCN(c5ccc(N6CC(C)(N)C6)c(C)n5)CC4)O[C@H](C)C3)ccc(C#N)c2n1` [Example 147, 5-[(2S,6R)-2-[[4-[5-(3-amino-3-methyl-azetidin-1-yl)-6-methyl-2-pyridyl]piperazin-1-yl]methyl]-6-methyl-morpholin-4-yl]-2-deuterio-quinoline-8-carbonitrile] the IC50 was 11 nM.
`COc1cc(N2CCN(C[C@H]3CN(c4ccc(C#N)c5ncccc45)C[C@@H](C)O3)CC2)nc(N2CCNCC2)n1` [Example 91, 5-[(2S,6R)-2-[[4-(6-methoxy-2-piperazin-1-yl-pyrimidin-4-yl)piperazin-1-yl]methyl]-6-methyl-morpholin-4-yl]quinoline-8-carbonitrile] was tested, and the IC50 was 8 nM.
With `[2H]c1ccc2c(N3C[C@H](CN4CCN(c5ccc(N[C@H]6CNC[C@H]6F)nc5)CC4)O[C@H](C)C3)ccc(C#N)c2n1` [Example 162, 2-deuterio-5-[(2S,6R)-2-[[4-[6-[[(3S,4R)-4-fluoropyrrolidin-3-yl]amino]-3-pyridyl]piperazin-1-yl]methyl]-6-methyl-morpholin-4-yl]quinoline-8-carbonitrile] the IC50 was 11 nM.
Work on `[2H]c1ccc2c(N3C[C@H](CN4CCN(c5nc(OC)cc(N6CC(C)(N)C6)n5)CC4)O[C@H](C)C3)ccc(C#N)c2n1` [Example 131, 5-[(2S,6R)-2-[[4-[4-(3-amino-3-methyl-azetidin-1-yl)-6-methoxy-pyrimidin-2-yl]piperazin-1-yl]methyl]-6-methyl-morpholin-4-yl]-2-deuterio-quinoline-8-carbonitrile] yielded an IC50 of 4 nM.
With `CO[C@@H]1CN(c2cc(C)nc(N3CCN(C[C@H]4CN(c5ccc(C#N)c6nccnc56)C[C@@H](C)O4)CC3)n2)C[C@H]1N` [Example 121, 8-[(2S,6R)-2-[[4-[4-[(3R,4R)-3-amino-4-methoxy-pyrrolidin-1-yl]-6-methyl-pyrimidin-2-yl]piperazin-1-yl]methyl]-6-methyl-morpholin-4-yl]quinoxaline-5-carbonitrile] the IC50 was 1 nM.
With `[2H]c1ccc2c(N3C[C@H](CN4CCN(c5cccc(N6CC(C)(N)C6)n5)CC4)O[C@H](C)C3)ccc(C#N)c2n1` [Example 155, 5-[(2S,6R)-2-[[4-[6-(3-amino-3-methyl-azetidin-1-yl)-2-pyridyl]piperazin-1-yl]methyl]-6-methyl-morpholin-4-yl]-2-deuterio-quinoline-8-carbonitrile] the IC50 was 8 nM.
In the case of `CO[C@@H]1CN(c2nccc(N3CCN(C[C@H]4CN(c5ccc(C#N)c6nccnc56)C[C@@H](C)O4)CC3)n2)C[C@H]1N` [Example 98, 8-[(2S,6R)-2-[[4-[2-[(3R,4R)-3-amino-4-methoxy-pyrrolidin-1-yl]pyrimidin-4-yl]piperazin-1-yl]methyl]-6-methyl-morpholin-4-yl]quinoxaline-5-carbonitrile], the IC50 is reported as 1 nM.
Compound `[2H]c1ccc2c(N3C[C@H](CN4CC(c5ccc(N6C[C@H](OC)[C@@H](N)C6)cc5)C4)O[C@H](C)C3)ccc(C#N)c2n1` [Example 140, 5-[(2S,6R)-2-[[3-[4-[(3S,4S)-3-amino-4-methoxy-pyrrolidin-1-yl]phenyl]azetidin-1-yl]methyl]-6-methyl-morpholin-4-yl]-2-deuterio-quinoline-8-carbonitrile] has an IC50 of 25 nM.
`C[C@@H]1CN(c2ccc(C#N)c3ncccc23)C[C@H](CN2CCN(c3ccnc(N4C[C@H]5NCCO[C@@H]5C4)n3)CC2)O1` [Example 103, 5-[(2S,6R)-2-[[4-[2-[(4aR,7aR)-3,4,4a,5,7,7a-hexahydro-2H-pyrrolo[3,4-b][1,4]oxazin-6-yl]pyrimidin-4-yl]piperazin-1-yl]methyl]-6-methyl-morpholin-4-yl]quinoline-8-carbonitrile] showed an IC50 of 1 nM.
`[2H]c1ccc2c(N3C[C@H](CN4CCN(c5nc(C)cc(N6C[C@@H](N)[C@H](OC)C6)n5)CC4)O[C@H](C)C3)ccc(C#N)c2n1` [Example 144, 5-[(2S,6R)-2-[[4-[4-[(3R,4R)-3-amino-4-methoxy-pyrrolidin-1-yl]-6-methyl-pyrimidin-2-yl]piperazin-1-yl]methyl]-6-methyl-morpholin-4-yl]-2-deuterio-quinoline-8-carbonitrile] was tested, and the IC50 was 1 nM.
